Reference: patent US11576979B2, “Pyrrolobenzodiazepine prodrugs and antibody conjugates thereof” (GENENTECH, INC., priority 2016, dated 2023)

Tests used:
A2058 = assay: CellTiter-Glo toxicity, 4 days (Example 9); type: cell-based; conditions: Homo sapiens, A2058, 96 h, 4 days of drug incubation; Table 7A
Outline: (§1)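 Cells were seeded in 384-well plates, dosed 24 h later and incubated with drug for 4 days. Viability was read as ATP luminescence by CellTiter-Glo and normalised to untreated controls. IC50 is the concentration giving 50% of maximum cell killing.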

Igrov-1 = assay: CellTiter-Glo toxicity, 4 days (Example 9); type: cell-based; conditions: Homo sapiens, IGROV-1, 96 h, 4 days of drug incubation; Table 7A
Outline: as §1

UACC-257 = assay: CellTiter-Glo toxicity, 4 days (Example 9); type: cell-based; conditions: Homo sapiens, UACC-257, 96 h, 4 days of drug incubation; Table 7A
Outline: as §1

[1] = test system: double strand DNA Oligos 1 and 2; assay: DNA oligo binding, LC/MS/UV; conditions: 100 uM compound, 100 uM DNA, 1 hour, 37 C

C=C1C[C@H]2C=Nc3cc(OC)c(OC)cc3C(=O)N2C1 [PBD monomer control 1, reference compound]
IC50 (A2058): 56.9 nM
IC50 (Igrov-1): 68.5 nM
IC50 (UACC-257): 181 nM
% DNA oligo remaining [1]: 35%
